pIC50: −log10 of the molar value. Starred links: 1 amine or outer side, 2 acyl side, 3 side chain; linkers in the order of their positions; H or OH if unused. Positions of bridges follow the written chain, without caps; N, C: chain ends. Non-standard residues stand in square brackets, D forms with d. Residues, ends and D or L forms follow the SMILES beside them. ξ: configuration not given here. Tyrψ(CN4)Ala = C[C@@H](C(=O)[*:2])n1nnnc1[C@H](Cc1ccc(O)cc1)N[*:1]; X1 = CCCC[C@@H](C(=O)[*:2])n1nnnc1[C@H](Cc1c[nH]c2ccccc12)N[*:1]; Morpholine(3S-CO) = O=C(O)[C@@H]1COCCN1; X2 = O=C(Cn1nnnc1C1(N[*:1])CCCCC1)[*:2]; Bta = N[C@@H](Cc1csc2ccccc12)C(=O)O; Hyp = O=C(O)[C@@H]1C[C@@H](O)CN1; NMeF = CN[C@@H](Cc1ccccc1)C(=O)O; NMeNle = CCCC[C@H](NC)C(=O)O; ξH = NC(Cc1c[nH]cn1)C(=O)O; NMeA = CN[C@@H](C)C(=O)O; Dap = NC[C@H](N)C(=O)O; Sar = CNCC(=O)O
The compounds below were run against T1, PD-1-Ig/PD-L1-His (Homo sapiens, UniProt Q9NZQ7) (assay: PD-1/PD-L1 Homogenous Time-Resolved Fluorescence (HTRF) binding assay). Details: inhibition of PD-1-Ig binding to PD-L1-TVMV-His; numeric values.
T1 construct: [hPD-L1(19-239)-tobacco vein mottling virus protease cleavage site (TVMV)-His]; made in house; host or cells: HEK293T cells
T1 sequence (Q9NZQ7 with tags, fused parts or gaps): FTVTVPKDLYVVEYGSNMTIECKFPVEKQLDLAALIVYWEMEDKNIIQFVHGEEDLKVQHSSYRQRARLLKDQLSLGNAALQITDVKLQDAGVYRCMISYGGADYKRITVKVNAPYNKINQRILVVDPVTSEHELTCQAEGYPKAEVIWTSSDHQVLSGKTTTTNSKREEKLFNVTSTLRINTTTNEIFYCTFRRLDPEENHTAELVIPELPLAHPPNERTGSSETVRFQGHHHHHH
Text: The ability of the macrocyclic peptides of the present disclosure to bind to PD-L1 was investigated using a PD-1/PD-L1 Homogenous Time-Resolved Fluorescence (HTRF) binding assay.
Homogenous Time-Resolved Fluorescence (HTRF) Assays of Binding of Soluble PD-1 to Soluble PD-L1. Soluble PD-1 and soluble PD-L1 refers to proteins with carboxyl-end truncations that remove the transmembrane-spanning regions and are fused to heterologous sequences, specifically the Fc portion of the human immunoglobuling G sequence (Ig) or the hexahistidine epitope tag (SEQ ID NO: 3) (His). All binding studies were performed in an HTRF assay buffer consisting of dPBS supplemented with 0.1% (w/v) bovine serum albumin and 0.05% (v/v) Tween-20. For the PD-1-Ig/PD-L1-His binding assay, inhibitors were pre-incubated with PD-L1-His (10 nM final) for 15 m in 4 μl of assay buffer, followed by addition of PD-1-Ig (20 nM final) in 1 μl of assay buffer and further incubation for 15 m. PD-L1 fusion proteins from either human, cynomologous macaques, mouse, or other species were used. HTRF detection was achieved using europium crypate-labeled anti-Ig monoclonal antibody (1 nM final) and allophycocyanin (APC) labeled anti-His monoclonal antibody (20 nM final). Antibodies were diluted in HTRF detection buffer and 5 μl was dispensed on top of binding reaction. The reaction was allowed to equilibrate for 30 minutes and signal (665 nm/620 nm ratio) was obtained using an EnVision fluorometer. Additional binding assays were established between PD-1-Ig/PD-L2-His (20 and 5 nM, respectively), CD80-His/PD-L1-Ig (100 and 10 nM, respectively) and CD80-His/CTLA4-Ig (10 and 5 nM, respectively). Binding/competition studies between biotinylated Compound No. 71 and human PD-L1-His were performed as follows. Macrocyclic peptide inhibitors were pre-incubated with PD-L1-His (10 nM final) for 60 minutes in 4 μl of assay buffer followed by addition of biotinylated Compound No. 71 (0.5 nM final) in 1 μl of assay buffer. Binding was allowed to equilibrate for 30 minutes followed by addition of europium crypated labeled Streptavidin (2.5 pM final) and APC-labeled anti-His (20 nM final) in 5 μl of HTRF buffer. The reaction was allowed to equilibrate for 30 m and signal (665 nm/620 nm ratio) was obtained using an EnVision fluorometer.
Recombinant Proteins. Carboxyl-truncated human PD-1 (amino acids 25-167) with a C-terminal human Ig epitope tag [hPD-1 (25-167)-3S-IG] and human PD-L1 (amino acids 18-239) with a C-terminal His epitope tag [hPD-L1(19-239)-tobacco vein mottling virus protease cleavage site (TVMV)-His] were expressed in HEK293T cells and purified sequentially by recombinant Protein A affinity chromatography and size exclusion chromatography. Human PD-L2-His (Sino Biologicals), CD80-His (Sino Biologicals), CTLA4-Ig (RnD Systems) were all obtained through commercial sources.

Row | pIC50 | Structure (SMILES)
1 | 8.10 | CCCC[C@H]1C(=O)N[C@@H](C)C(=O)N[C@H](C(=O)NCC(N)=O)CSCC(=O)N[C@@H](Cc2ccc(O)cc2)C(=O)N2CCOC[C@H]2C(=O)N[C@@H](CC(N)=O)C(=O)N2CCC[C@H]2C(=O)N[C@@H](CN)C(=O)N[C@@H](CC(C)C)C(=O)N2C[C@H](O)C[C@H]2C(=O)N[C@@H](Cc2c[nH]c3ccccc23)C(=O)N[C@@H](CO)C(=O)N[C@@H](Cc2c[nH]c3ccccc23)c2nnnn2[C@@H](CCCC)C(=O)N1C [Example 1055] ({CH2CO}-Y[Morpholine(3S-CO)]NP[Dap]L[Hyp]WS[X1][NMeNle]ACG-NH2; thioether N-13)
2 | 6.23 | CCCC[C@H]1C(=O)N(C)CC(=O)N[C@@H](CC(=O)O)C(=O)N[C@@H](C(C)C)C(=O)N(C)[C@@H](Cc2ccccc2)C(=O)NC2(CCCCC2)c2nnnn2CC(=O)N[C@@H](Cc2c[nH]c3ccccc23)C(=O)N[C@@H](Cc2ccc(O)cc2)C(=O)N[C@@H](CC(C)C)C(=O)N[C@H](C(=O)NCC(N)=O)CSCC(=O)N[C@@H](Cc2ccccc2)C(=O)N(C)[C@@H](Cc2ccccc2)C(=O)N1C [Example 3003] ({CH2CO}-F[NMeF][NMeNle][Sar]DV[NMeF][X2]WYLCG-NH2; thioether N-12)
3 | 5.67 | CCCC[C@H]1C(=O)N[C@@H](CN)C(=O)N[C@H](C(=O)NCC(N)=O)CSCC(=O)N[C@@H](Cc2ccc(O)cc2)C(=O)N[C@H](C)C(=O)N[C@@H](CC(=O)O)C(=O)N2CCC[C@H]2C(=O)N[C@@H](Cc2cnc[nH]2)C(=O)N[C@@H](CCC(N)=O)C(=O)N2C[C@H](O)C[C@H]2C(=O)N[C@@H](Cc2c[nH]c3ccccc23)C(=O)N[C@@H](CO)C(=O)N[C@@H](Cc2cccc3ccccc23)c2nnnn2[C@@H](CCCC)C(=O)N1C [Example 1111]

Same assay, conditions: inhibition of PD-1-Ig binding to PD-L1-TVMV-His; range classes

Row | Structure (SMILES) | pIC50
4 | CCCC[C@H]1C(=O)N[C@@H](C)C(=O)N[C@H](C(=O)NCC(N)=O)CSCC(=O)N[C@@H](Cc2ccc(O)cc2)C(=O)N(C)[C@@H](C)C(=O)N[C@@H](CC(N)=O)C(=O)N2CCC[C@H]2C(=O)N[C@@H](CN)C(=O)N[C@@H](CC(C)C)C(=O)N2C[C@H](O)C[C@H]2C(=O)N[C@@H](Cc2c[nH]c3ccccc23)C(=O)N[C@@H](CO)C(=O)N[C@@H](Cc2c[nH]c3ccccc23)c2nnnn2[C@@H](CCCC)C(=O)N1C [Example 1100] ({CH2CO}-Y[NMeA]NP[Dap]L[Hyp]WS[X1][NMeNle]ACG-NH2; thioether N-13) | 5.00 to 7.00
5 | CCCC[C@H]1C(=O)N[C@@H](CCC(=O)O)C(=O)N[C@H](C(=O)NCC(N)=O)CSCC(=O)N[C@@H](Cc2ccc(O)cc2)C(=O)N(C)[C@@H](C)C(=O)N[C@@H](CC(=O)O)C(=O)N2CCC[C@H]2C(=O)N[C@@H](Cc2cnc[nH]2)C(=O)N[C@@H](CCC(N)=O)C(=O)N2C[C@H](O)C[C@H]2C(=O)N[C@@H](Cc2c[nH]c3ccccc23)C(=O)N[C@@H](CO)C(=O)N[C@@H](Cc2cccc3ccccc23)c2nnnn2[C@@H](CCCC)C(=O)N1C [Example 1104] | 7.00 to 8.00
6 | CCCC[C@H]1C(=O)N(C)[C@@H](CCCC)C(=O)N[C@@H](CC(C)C)C(=O)N[C@H](C(=O)NCC(=O)O)CSCC(=O)N[C@@H](Cc2ccc(O)cc2)c2nnnn2[C@@H](C)C(=O)N[C@@H](CC(N)=O)C(=O)N2CCC[C@H]2C(=O)NC(Cc2c[nH]cn2)C(=O)N[C@@H](CCC(N)=O)C(=O)N2C[C@H](O)C[C@H]2C(=O)N[C@@H](Cc2c[nH]c3ccccc23)C(=O)N[C@@H](CO)C(=O)N[C@@H](Cc2csc3ccccc23)C(=O)N1C (stereo partly shown) [Example 1061] ({CH2CO}-[Tyrψ(CN4)Ala]NP[ξH]Q[Hyp]WS[Bta][NMeNle][NMeNle]LCG-OH; thioether N-13) | 5.00 to 7.00
7 | CCCC[C@H]1C(=O)NC(CCCNC(=N)N)C(=O)N[C@H](C(=O)NCC(N)=O)CSCC(=O)N[C@@H](Cc2ccc(O)cc2)C(=O)N(C)[C@@H](C)C(=O)N[C@@H](CC(N)=O)C(=O)N2CCC[C@H]2C(=O)N[C@@H](Cc2cnc[nH]2)C(=O)N[C@@H](CC(C)C)C(=O)N2CCC[C@H]2C(=O)N[C@@H](Cc2c[nH]c3ccccc23)C(=O)N[C@@H](CO)C(=O)N[C@@H](Cc2cccc3ccccc23)c2nnnn2[C@@H](CCCC)C(=O)N1C (stereo partly shown) [Example 1006] | 5.00 to 7.00
8 | CCCC[C@H]1C(=O)N(C)[C@@H](CCCC)C(=O)N[C@@H](CCC(=O)O)C(=O)N[C@H](C(=O)NCC(N)=O)CSCC(=O)N[C@@H](Cc2ccc(O)cc2)c2nnnn2[C@@H](C)C(=O)N[C@@H](CC(=O)O)C(=O)N2CCC[C@H]2C(=O)N[C@@H](Cc2c[nH]cn2)C(=O)N[C@@H](CCC(N)=O)C(=O)N2C[C@H](O)C[C@H]2C(=O)N[C@@H](Cc2c[nH]c3ccccc23)C(=O)N[C@@H](CO)C(=O)N[C@@H](Cc2csc3ccccc23)C(=O)N1C [Example 1106] ({CH2CO}-[Tyrψ(CN4)Ala]DPHQ[Hyp]WS[Bta][NMeNle][NMeNle]ECG-NH2; thioether N-13) | 5.00 to 7.00

The next lines start with the values.

Row | pIC50 | Structure (SMILES)
9 | 5.00 to 7.00 | CCCC[C@H]1C(=O)N(C)[C@@H](CCCC)C(=O)N[C@@H](CC(C)C)C(=O)N[C@H](C(=O)NCC(N)=O)CSCC(=O)N[C@@H](Cc2ccc(O)cc2)c2nnnn2[C@@H](C)C(=O)N[C@@H](CC(N)=O)C(=O)N2CCC[C@H]2C(=O)N[C@@H](Cc2cnc[nH]2)C(=O)N[C@@H](CCC(N)=O)C(=O)N2C[C@H](O)C[C@H]2C(=O)N[C@@H](Cc2c[nH]c3ccccc23)C(=O)N[C@@H](CO)C(=O)N[C@@H](Cc2c[nH]c3ccccc23)C(=O)N1C [Example 1057] ({CH2CO}-[Tyrψ(CN4)Ala]NPHQ[Hyp]WSW[NMeNle][NMeNle]LCG-NH2; thioether N-13)
10 | 5.00 to 7.00 | CCCC[C@H]1C(=O)N(C)CC(=O)N[C@@H](CC(=O)O)C(=O)N[C@@H](C(C)C)C(=O)N(C)[C@@H](Cc2ccccc2)C(=O)N[C@@H](Cc2ccc(O)cc2)C(=O)N(C)CC(=O)N[C@@H](Cc2c[nH]c3ccccc23)C(=O)N[C@@H](Cc2ccc(O)cc2)C(=O)N[C@@H](CC(C)C)C(=O)N[C@H](C(=O)NCC(N)=O)CSCC(=O)NC(Cc2ccccc2)c2nnnn2[C@@H](Cc2ccccc2)C(=O)N1C (single isomer, unassigned) [Example 3001]
11 | 5.00 to 7.00 | CCCC[C@H]1C(=O)N(C)CC(=O)N[C@@H](CC(=O)O)C(=O)N[C@@H](C(C)C)C(=O)N(C)[C@@H](Cc2ccccc2)C(=O)N[C@@H](Cc2ccc(O)cc2)C(=O)N(C)CC(=O)N[C@@H](Cc2c[nH]c3ccccc23)C(=O)N[C@@H](Cc2ccc(O)cc2)C(=O)N[C@@H](CC(C)C)C(=O)N[C@H](C(=O)NCC(N)=O)CSCC(=O)NC(Cc2ccccc2)c2nnnn2[C@@H](Cc2ccccc2)C(=O)N1C (single isomer, unassigned) [Example 3002]
12 | 5.00 to 7.00 | CCCC[C@H]1C(=O)N(C)[C@@H](CCCC)C(=O)N[C@@H](CCCNC(=N)N)C(=O)N[C@H](C(=O)NCC(N)=O)CSCC(=O)N[C@@H](Cc2ccccc2)c2nnnn2[C@@H](C)C(=O)N[C@@H](CC(N)=O)C(=O)N2CCC[C@H]2C(=O)N[C@@H](Cc2cnc[nH]2)C(=O)N[C@@H](CC(C)C)C(=O)N(C)CC(=O)N[C@@H](Cc2c[nH]c3ccccc23)C(=O)N[C@@H](CO)C(=O)N[C@@H](Cc2c[nH]c3ccccc23)C(=O)N1C (single isomer, unassigned) [Example 1001]
13 | 5.00 to 7.00 | CCCC[C@@H]1C(=O)N[C@@H](CCCNC(=N)N)C(=O)N[C@H](C(=O)NCC(N)=O)CSCC(=O)N[C@@H](Cc2ccccc2)c2cnnn2[C@@H](C)C(=O)N[C@H](CC(N)=O)C(=O)N2CCC[C@H]2C(=O)N[C@@H](Cc2cnc[nH]2)C(=O)N[C@@H](CC(C)C)C(=O)N(C)CC(=O)N[C@@H](Cc2c[nH]c3ccccc23)C(=O)N[C@@H](CO)C(=O)N[C@@H](Cc2c[nH]c3ccccc23)C(=O)N(C)[C@@H](CCCC)C(=O)N1C (single isomer, unassigned) [Example 1004]

From patent publication US10450347B2, “Immunomodulators” (BRISTOL-MYERS SQUIBB COMPANY, priority 2015, dated 2019)
